From PubChem BioAssay (NCI)
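These data come from cells grown in 96-well plates and exposed to compound for 48 hours at five concentrations. Here, GI50 denotes the concentration required for 50% inhibition of growth. TGI: concentration producing complete growth inhibition.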

Test system: P388 leukemia
Assay: NCI tumour cell line growth inhibition, 48 h

SMILES	GI50 [µM]	TGI [µM]
O=[Se](=O)c1ccccc1.O=[Se](=O)c1ccccc1.[Cu]	5.23	29
C=C1C(=O)OCC2C(C(=O)O)=CC3C(C)C(C)=CC123 (stereo not drawn)	–	12.7
